Results: the supplement of paper PMC8967900

Columns and labels:
Assay in all cases: selective drug sensitivity score (sDSS, relative to normal bone marrow) (sDSS (score)); higher = more potent and effective on the cell line relative to normal bone marrow cells
Conditions in all cases: 72 h
COG-LL-332h = system: COG-LL-332h
MHH-CALL-3 = system: MHH-CALL-3
PEER = system: PEER
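Further: ALL cell lines in 384-well plates, five doses spanning 10,000-fold, each plate scaled between vehicle and 100 µmol/L benzalkonium chloride controls, sDSS an adapted area-under-curve metric.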

Question: Which “selective drug sensitivity score” value (COG-LL-332h) does the source give for `Cc1c(-c2ccc(N3CCc4cccc(C(=O)Nc5nc6ccccc6s5)c4C3)nc2C(=O)O)cnn1CC12CC3CC(CC(C3)C1)C2` (top concentration 1000 nM) here?
Answer: Its value is 9.14.

Question: And the “selective drug sensitivity score” value (MHH-CALL-3)?
Answer: Its value is 9.54.

Question: What about the “selective drug sensitivity score” value (PEER) of the same molecule?
Answer: The value was 19.3.

Question: What does the source list for `O=C(NOC[C@H](O)CO)c1ccc(F)c(F)c1Nc1ccc(I)cc1F` (top concentration 1000 nM)?
Answer: selective drug sensitivity score (COG-LL-332h): -2.26; selective drug sensitivity score (MHH-CALL-3): 14.9; selective drug sensitivity score (PEER): 0.94

Question: How did the “selective drug sensitivity score” value (COG-LL-332h) turn out when `CO[C@@H](C)Cn1c(=O)n(C)c2cnc3ccc(-c4cncc(C(C)(C)O)c4)cc3c21` (top concentration 2500 nM) was run?
Answer: Its value is 4.18.

Question: And the “selective drug sensitivity score” value (MHH-CALL-3)?
Answer: Its value is -1.42.

Question: And the “selective drug sensitivity score” value (PEER)?
Answer: Its value is 3.38.

Question: With `Cc1cccc(CC(=O)N2CCc3c2ccc(-c2cn(C)c4ncnc(N)c24)c3F)n1` (top concentration 2500 nM) as the molecule, how does the “selective drug sensitivity score” value (COG-LL-332h) read?
Answer: The value was 0.32.

Question: What about the “selective drug sensitivity score” value (MHH-CALL-3) of the same molecule?
Answer: The value was -0.68.

Question: What about the “selective drug sensitivity score” value (PEER) of the same molecule?
Answer: Its value is 7.02.

Question: With `CNC(=O)c1ccccc1Nc1nc(Nc2ccc3c(c2OC)CCC[C@H](N2CCN(CCO)CC2)C3)ncc1Cl` (top concentration 5000 nM) as the molecule, how does the “selective drug sensitivity score” value (COG-LL-332h) read?
Answer: Its value is -1.54.

Question: And the “selective drug sensitivity score” value (MHH-CALL-3)?
Answer: Its value is -1.94.

Question: And the “selective drug sensitivity score” value (PEER)?
Answer: Its value is -1.44.

Question: `COc1cc2ncnc(Oc3cccc(NC(=O)Nc4cc(C(C)(C)C(F)(F)F)on4)c3)c2cc1OC` (top concentration 10000 nM) was tested. Which “selective drug sensitivity score” value (COG-LL-332h) did it give?
Answer: The value was 18.4.

Question: What about the “selective drug sensitivity score” value (MHH-CALL-3) of the same molecule?
Answer: The value was 0.

Question: What about the “selective drug sensitivity score” value (PEER) of the same molecule?
Answer: The value was 17.8.

Question: With `C[C@@H](Oc1cc(-n2cnc3ccc(CN4CCN(C)CC4)cc32)sc1C(N)=O)c1ccccc1C(F)(F)F` (top concentration 10000 nM) as the molecule, how does the “selective drug sensitivity score” value (COG-LL-332h) read?
Answer: Its value is 20.5.

Question: And the “selective drug sensitivity score” value (MHH-CALL-3)?
Answer: Its value is 8.92.

Question: And the “selective drug sensitivity score” value (PEER)?
Answer: Its value is 30.

Question: How did the “selective drug sensitivity score” value (COG-LL-332h) turn out when `Nc1nccc(-c2c(-c3ccc(F)cc3)ncn2C2CCCCC2)n1` (top concentration 10000 nM) was run?
Answer: The value was 3.1.

Question: What about the “selective drug sensitivity score” value (MHH-CALL-3) of the same molecule?
Answer: The value was 0.1.

Question: And the “selective drug sensitivity score” value (PEER)?
Answer: Its value is 1.4.

Question: Which “selective drug sensitivity score” value (COG-LL-332h) does the source give for `O=C(O)c1ccc(-c2c[nH]c3ncc(-c4ccccc4)cc23)cc1C1CCCC1` (top concentration 10000 nM) here?
Answer: Its value is 2.86.

Question: What about the “selective drug sensitivity score” value (MHH-CALL-3) of the same molecule?
Answer: The value was 3.76.

Question: What about the “selective drug sensitivity score” value (PEER) of the same molecule?
Answer: The value was 2.56.

Question: Which results are given for `C[C@@H]1CN(CC(=O)Nc2ccc3c(c2)Cc2cccc(-c4cc(=O)cc(N5CCOCC5)o4)c2S3)C[C@H](C)O1` (top concentration 25000 nM)?
Answer: selective drug sensitivity score (COG-LL-332h): 2.02; selective drug sensitivity score (MHH-CALL-3): -2.18; selective drug sensitivity score (PEER): 2.62

Question: How did the “selective drug sensitivity score” value (COG-LL-332h) turn out when `COc1ccc2[nH]cc(/C=C3\C(=O)Nc4ccc(NC(=O)CCN5CCCCC5)cc43)c2c1` (top concentration 50000 nM) was run?
Answer: The value was 4.68.

Question: What about the “selective drug sensitivity score” value (MHH-CALL-3) of the same molecule?
Answer: The value was -5.32.

Question: What about the “selective drug sensitivity score” value (PEER) of the same molecule?
Answer: Its value is 2.18.

Question: What does the source list for `Cc1nn(C)c(COc2ccc(N3CCN(S(=O)(=O)N(C)C)CC3)cc2)c1-c1cccc2c(CCCOc3cccc4ccccc34)c(C(=O)O)n(CCN3CCOCC3)c12` (top concentration 50000 nM)?
Answer: selective drug sensitivity score (COG-LL-332h): 4.16; selective drug sensitivity score (MHH-CALL-3): 2.56; selective drug sensitivity score (PEER): 10.2

Question: Which “selective drug sensitivity score” value (COG-LL-332h) does the source give for `C[C@H](Nc1ncnc2[nH]cnc12)c1cc2ccc(F)cc2nc1-c1ccccn1` [AMG319] (top concentration 1000 nM) here?
Answer: Its value is -1.42.

Question: What about the “selective drug sensitivity score” value (MHH-CALL-3) of the same molecule?
Answer: Its value is -0.42.

Question: And the “selective drug sensitivity score” value (PEER)?
Answer: The value was -1.42.

Question: What does the source list for `C=CCn1c(=O)c2cnc(Nc3ccc(N4CCN(C)CC4)cc3)nc2n1-c1cccc(C(C)(C)O)n1` [AZD1775] (top concentration 10000 nM)?
Answer: selective drug sensitivity score (COG-LL-332h): 11; selective drug sensitivity score (MHH-CALL-3): 5.64; selective drug sensitivity score (PEER): 12.2

Question: Which results are given for `NC(=O)Nc1cc(-c2cccc(F)c2)sc1C(=O)N[C@H]1CCCNC1` [AZD7762] (top concentration 1000 nM)?
Answer: selective drug sensitivity score (COG-LL-332h): -0.8; selective drug sensitivity score (MHH-CALL-3): 1.9; selective drug sensitivity score (PEER): -0.7

Question: `Cc1cc([C@@H](C)Nc2ccccc2C(=O)O)c2nc(N3CCOCC3)cc(=O)n2c1` [AZD-6482] (top concentration 2500 nM) was tested. Which “selective drug sensitivity score” value (COG-LL-332h) did it give?
Answer: The value was 1.32.

Question: And the “selective drug sensitivity score” value (MHH-CALL-3)?
Answer: Its value is 0.42.

Question: And the “selective drug sensitivity score” value (PEER)?
Answer: Its value is -0.28.

Question: Which results are given for `CN(C)Cc1c(C(=O)NCCOc2ccc(C(=O)NO)cc2)oc2ccccc12` [Abexinostat] (top concentration 10000 nM)?
Answer: selective drug sensitivity score (COG-LL-332h): 0.36; selective drug sensitivity score (MHH-CALL-3): 15.4; selective drug sensitivity score (PEER): 6.16

Question: With `S=C(NCc1ccc2c(c1)OCO2)N1CCN(c2ncnc3c2oc2ccccc23)CC1` [Amuvatinib] (top concentration 10000 nM) as the molecule, how does the “selective drug sensitivity score” value (COG-LL-332h) read?
Answer: Its value is 2.96.

Question: What about the “selective drug sensitivity score” value (MHH-CALL-3) of the same molecule?
Answer: Its value is 5.06.

Question: What about the “selective drug sensitivity score” value (PEER) of the same molecule?
Answer: Its value is 9.36.

Question: `CC(=O)OC[C@H]1O[C@@H]([S-])[C@H](OC(C)=O)[C@@H](OC(C)=O)[C@@H]1OC(C)=O.CCP(CC)CC.[Au+]` [Auranofin] (top concentration 2500 nM) was tested. Which “selective drug sensitivity score” value (COG-LL-332h) did it give?
Answer: Its value is 1.44.

Question: What about the “selective drug sensitivity score” value (MHH-CALL-3) of the same molecule?
Answer: The value was 4.04.

Question: And the “selective drug sensitivity score” value (PEER)?
Answer: Its value is 0.74.

Question: With `CNC(=O)c1ccccc1Sc1ccc2c(/C=C/c3ccccn3)n[nH]c2c1` [Axitinib] (top concentration 10000 nM) as the molecule, how does the “selective drug sensitivity score” value (COG-LL-332h) read?
Answer: Its value is 13.3.

Question: What about the “selective drug sensitivity score” value (MHH-CALL-3) of the same molecule?
Answer: The value was -2.44.

Question: What about the “selective drug sensitivity score” value (PEER) of the same molecule?
Answer: Its value is 17.3.

Question: For `Cc1c(N)nc([C@H](CC(N)=O)NC[C@H](N)C(N)=O)nc1C(=O)N[C@H](C(=O)N[C@H](C)[C@@H](O)[C@H](C)C(=O)N[C@H](C(=O)NCCc1nc(-c2nc(C(=O)NCCC[S+](C)C)cs2)cs1)[C@@H](C)O)[C@@H](O[C@@H]1O[C@@H](CO)[C@@H](O)[C@H](O)[C@@H]1O[C@H]1O[C@H](CO)[C@@H](O)[C@H](OC(N)=O)[C@@H]1O)c1c[nH]cn1` [Bleomycin] (top concentration 10000 nM), which “selective drug sensitivity score” value (COG-LL-332h) is on record?
Answer: The value was 8.04.

Question: And the “selective drug sensitivity score” value (MHH-CALL-3)?
Answer: The value was 4.14.

Question: And the “selective drug sensitivity score” value (PEER)?
Answer: Its value is -0.66.

Question: `CC(C)C[C@H](NC(=O)[C@H](Cc1ccccc1)NC(=O)c1cnccn1)B(O)O` [Bortezomib] (top concentration 1000 nM) was tested. Which “selective drug sensitivity score” value (COG-LL-332h) did it give?
Answer: Its value is 4.22.

Question: And the “selective drug sensitivity score” value (MHH-CALL-3)?
Answer: Its value is 2.72.

Question: And the “selective drug sensitivity score” value (PEER)?
Answer: Its value is 2.32.

Question: With `CCC/C=C/C=C/C(=O)O[C@H]1/C(=C/C(=O)OC)C[C@H]2C[C@H]([C@@H](C)O)OC(=O)C[C@H](O)C[C@@H]3C[C@H](OC(C)=O)C(C)(C)[C@](O)(C[C@@H]4C/C(=C/C(=O)OC)C[C@H](/C=C/C(C)(C)[C@]1(O)O2)O4)O3` [Bryostatin_1] (top concentration 100 nM) as the molecule, how does the “selective drug sensitivity score” value (COG-LL-332h) read?
Answer: The value was -7.12.

Question: What about the “selective drug sensitivity score” value (MHH-CALL-3) of the same molecule?
Answer: The value was -7.12.

Question: What about the “selective drug sensitivity score” value (PEER) of the same molecule?
Answer: Its value is -7.12.

Question: Which “selective drug sensitivity score” value (COG-LL-332h) does the source give for `CO[C@H]1CC[C@H](N2C(=O)CNc3ncc(-c4ccc(C(C)(C)O)nc4)nc32)CC1` [CC-223] (top concentration 10000 nM) here?
Answer: Its value is 1.92.

Question: What about the “selective drug sensitivity score” value (MHH-CALL-3) of the same molecule?
Answer: The value was 8.82.

Question: What about the “selective drug sensitivity score” value (PEER) of the same molecule?
Answer: Its value is 1.02.

Question: With `CN(C)c1cc2c(cc1Sc1nc3c(N)nccc3n1CCNCC(C)(C)C)OCO2` [CUDC-305] (top concentration 10000 nM) as the molecule, how does the “selective drug sensitivity score” value (COG-LL-332h) read?
Answer: The value was 3.82.

Question: And the “selective drug sensitivity score” value (MHH-CALL-3)?
Answer: The value was -11.7.

Question: What about the “selective drug sensitivity score” value (PEER) of the same molecule?
Answer: The value was 0.42.
